In patent publication EP0368576B1, “Insecticide comprising a suspension of microcapsules containing chlorpyrifos” (priority 1988, dated 1990):

Legend:
[1] = Acute dermal toxicity test; settings: Wistar, rat, in vivo, topical or ocular, Wister male rats (8 weeks old), read-out: Acute dermal toxicity LD₅₀
Description: (§1) Tests of the acute oral toxicity and the acute dermal toxicity of the encapsulated insecticide produced in Example 2 and the acute toxicity thereof to fish were carried out as follows.
(§2) A group of 5 ICR male mice (5 weeks old) and a group of 5 Wister male rats (8 weeks old) were used for the acute oral toxicity test and the acute dermal toxicity test, respectively. Tests were carried out to obtain LD₅₀ values in accordance with the toxicity guidance of agricultural chemicals (Agricultural production No. 59 - 4200) (Notification of Director-General, Agricultural Production Bureau, 59 Nohsan No. 4200 dated January 28, 1985) issued by the Agricultural and Fisheries Ministry. The test for acute toxity to fish was carried out using groups of carp, each group consisting of 10 carp, in accordance with the Circular Notice No. 2735 issued by Director of the Agricultural Administration Bureau in the Agricultural and Fisheries Ministry to obtain the TLm of each group.

carp = experiment: Acute toxicity to fish; type: in vivo
Description: as §1, §2

Acute oral toxicity test = settings: mouse, in vivo, ICR male mice (5 weeks old), read-out: Acute oral toxicity LD₅₀
Description: as §1, §2

[2] = Test of the release property in soil; type: physicochemical; settings: sand soil, 65 days; rate based on the original amount
Description: 7.5 g of the encapsulated insecticide produced in Example 2 was dispersed in 100 mℓ of water, and 1 mℓ of the dispersion was added to 30 g of soil (sand soil of Mt. Kannan) which had been put into a 100-mℓ beaker, and thoroughly mixed therewith.
Separately from this, 1500 mg of the chlorpyrifos was dissolved into 100 mℓ of acetone and 1 mℓ of the solution was added to 30 g of soil (same as above) and thoroughly mixed therewith.
The beaker was covered with aluminium foil, and water was sometimes sprayed on the soil to prevent the soil from drying. 65 days after, the amount of chlorpyrifos in the beaker was measured.
In order to measure the total amount of chlorpyrifos, 150 mℓ of acetone and 2 mℓ of concentrated hydrochloric acid was added to 30 g of the soil. The mixture was refluxed under heating in a water bath at 65°C for 1 hour, and after cooling filtered through No. 5C filter paper. The residue was further washed with 100 mℓ of acetone, and diluted so that the total volume was 250 mℓ to measure the amount of chlorpyrifos by high-speed liquid chromatography.
The amount of chlorpyrifos liberated was measured in the following manner. A mixture solvent of methanol and water (60/40) was added to 30 g of the soil. After the mixture was shaken for 10 minutes, the mixture was filtered through No. 5C filter paper. […]

With `CCOP(=S)(OCC)Oc1nc(Cl)c(Cl)cc1Cl` [Technical, 0,0-diethyl-0-3,5,6-trichloro-2-pyridyl-phosphorothioate] the LD50 [1] was 202 mg/kg, the “Toxicity to fish TLm (48 h)” value (carp) was 0.13 ppm and the LD50 (Acute oral toxicity test) was 178 mg/kg. The “Amount of chlorpyrifos remaining in the soil: Total amount of chlorpyrifos” value [2] was 41 wt%.
